The source made the active and inactive calls.
Tests used:
[1] = target: T1, Retinoblastoma-associated protein (Homo sapiens) (UniProt P06400); test: Inhibition of RB protein in human MCF7 cells assessed as reduction in EGF-induced Rb phosphorylation at Ser807/811 residue by NanoBiT cell-based immunoassay
T1 sequence (whole entry): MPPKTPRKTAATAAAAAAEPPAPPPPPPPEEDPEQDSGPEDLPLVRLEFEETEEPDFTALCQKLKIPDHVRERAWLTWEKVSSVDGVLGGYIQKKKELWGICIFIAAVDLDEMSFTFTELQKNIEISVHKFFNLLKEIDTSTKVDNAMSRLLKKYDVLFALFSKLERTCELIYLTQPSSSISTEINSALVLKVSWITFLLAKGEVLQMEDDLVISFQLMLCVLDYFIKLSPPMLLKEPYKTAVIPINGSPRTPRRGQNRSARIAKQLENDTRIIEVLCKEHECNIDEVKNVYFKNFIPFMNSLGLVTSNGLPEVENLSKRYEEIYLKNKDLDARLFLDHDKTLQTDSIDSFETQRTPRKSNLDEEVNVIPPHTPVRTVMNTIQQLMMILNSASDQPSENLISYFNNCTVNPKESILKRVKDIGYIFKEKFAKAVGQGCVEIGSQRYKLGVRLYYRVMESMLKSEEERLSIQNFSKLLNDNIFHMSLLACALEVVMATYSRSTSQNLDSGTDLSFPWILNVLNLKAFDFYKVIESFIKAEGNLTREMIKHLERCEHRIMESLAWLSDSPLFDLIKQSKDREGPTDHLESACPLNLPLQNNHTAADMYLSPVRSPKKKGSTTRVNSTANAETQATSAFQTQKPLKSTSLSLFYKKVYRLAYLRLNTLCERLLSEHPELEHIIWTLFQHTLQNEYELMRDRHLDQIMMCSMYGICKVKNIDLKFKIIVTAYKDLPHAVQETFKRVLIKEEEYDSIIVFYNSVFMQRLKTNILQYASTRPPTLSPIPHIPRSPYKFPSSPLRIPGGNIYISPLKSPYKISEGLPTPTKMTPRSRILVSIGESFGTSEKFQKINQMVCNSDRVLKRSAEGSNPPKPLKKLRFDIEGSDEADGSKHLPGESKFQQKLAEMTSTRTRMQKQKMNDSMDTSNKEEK

[2] = target: T1, Retinoblastoma-associated protein (Homo sapiens); test: Inhibition of RB protein in human MCF7 cells assessed as reduction in 17beta-estradiol-induced Rb phosphorylation at Ser807/811 residue by NanoBiT cell-based immunoassay
[3] = target: T1, Retinoblastoma-associated protein (Homo sapiens); test: Inhibition of RB protein in human MCF7 cells assessed as reduction in 17beta-estradiol-induced Rb phosphorylation at Ser780 residue by NanoBiT cell-based immunoassay
[4] = target: T1, Retinoblastoma-associated protein (Homo sapiens); test: Inhibition of RB protein in human MCF7 cells assessed as reduction in EGF-induced Rb phosphorylation at Ser780 residue by NanoBiT cell-based immunoassay
[5] = target: Small ribosomal subunit protein eS6 (Homo sapiens) (UniProt P62753); test: Inhibition of S6 ribosomal protein in HEK293 cells assessed as reduction in insulin-induced S6 phosphorylation at Ser240/244 residue by NanoBiT cell-based immunoassay
[6] = target: Small ribosomal subunit protein eS6 (Homo sapiens) (UniProt P62753); test: Inhibition of S6 ribosomal protein in HEK293 cells assessed as reduction in insulin-induced S6 phosphorylation at Ser235/236 residue by NanoBiT cell-based immunoassay
[7] = target: Eukaryotic translation initiation factor 4E-binding protein 1 (Homo sapiens) (UniProt Q13541); test: Inhibition of 4E-BP1 in HEK293 cells assessed as reduction in insulin-induced 4E-BP1 phosphorylation at Ser65 residue by NanoBiT cell-based immunoassay
Chain of Eukaryotic translation initiation factor 4E-binding protein 1 (Homo sapiens) (Q13541 whole entry): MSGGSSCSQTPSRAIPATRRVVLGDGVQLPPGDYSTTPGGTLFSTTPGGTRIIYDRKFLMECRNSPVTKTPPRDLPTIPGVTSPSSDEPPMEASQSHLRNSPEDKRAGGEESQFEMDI

[8] = target: Small ribosomal subunit protein eS6 (Homo sapiens) (UniProt P62753); test: Inhibition of S6 ribosomal protein in HEK293 cells assessed as reduction in serum-induced S6 phosphorylation at Ser235/236 residue by NanoBiT cell-based immunoassay
[9] = target: Small ribosomal subunit protein eS6 (Homo sapiens) (UniProt P62753); test: Inhibition of S6 ribosomal protein in HEK293 cells assessed as reduction in serum-induced S6 phosphorylation at Ser240/244 residue by NanoBiT cell-based immunoassay
[10] = target: Eukaryotic translation initiation factor 4E-binding protein 1 (Homo sapiens) (UniProt Q13541); test: Inhibition of 4E-BP1 in human MCF7 cells assessed as reduction in insulin-induced 4E-BP1 phosphorylation at Ser65 residue by NanoBiT cell-based immunoassay
[11] = target: T2, Catenin beta-1 (Homo sapiens) (UniProt P35222); test: Induction of beta-catenin degradation in Wnt3a-stimulated HEK293 cells by NanoBiT cell-based immunoassay
T2 sequence (whole entry): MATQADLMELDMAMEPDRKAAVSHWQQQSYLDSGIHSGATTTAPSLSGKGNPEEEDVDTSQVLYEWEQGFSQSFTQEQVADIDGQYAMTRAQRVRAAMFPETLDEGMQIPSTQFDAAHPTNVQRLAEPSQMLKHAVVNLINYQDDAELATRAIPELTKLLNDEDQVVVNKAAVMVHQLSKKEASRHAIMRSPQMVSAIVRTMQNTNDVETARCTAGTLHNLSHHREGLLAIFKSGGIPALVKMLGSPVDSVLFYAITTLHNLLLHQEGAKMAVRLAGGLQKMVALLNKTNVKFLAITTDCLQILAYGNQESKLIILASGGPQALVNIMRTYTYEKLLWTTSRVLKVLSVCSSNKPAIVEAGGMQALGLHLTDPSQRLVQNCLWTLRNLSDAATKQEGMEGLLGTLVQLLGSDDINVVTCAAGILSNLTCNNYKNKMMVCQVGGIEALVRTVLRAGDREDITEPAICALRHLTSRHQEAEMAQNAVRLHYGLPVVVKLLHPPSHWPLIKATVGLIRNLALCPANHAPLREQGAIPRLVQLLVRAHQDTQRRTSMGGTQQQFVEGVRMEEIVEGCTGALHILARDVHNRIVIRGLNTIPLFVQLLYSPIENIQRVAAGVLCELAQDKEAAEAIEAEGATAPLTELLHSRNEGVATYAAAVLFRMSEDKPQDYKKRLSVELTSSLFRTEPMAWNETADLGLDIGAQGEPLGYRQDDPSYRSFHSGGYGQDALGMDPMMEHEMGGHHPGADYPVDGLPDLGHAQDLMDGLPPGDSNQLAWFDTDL

CC(=O)c1c(C)c2cnc(Nc3ccc(N4CCNCC4)cn3)nc2n(C2CCCC2)c1=O
active: inhibition [1] | inhibition [2] | inhibition [3] | inhibition [4]

CCN(CC)C(=O)c1ccc(Nc2nc(OCC3CCCCC3)c3nc[nH]c3n2)cc1
active: inhibition [1] | inhibition [2] | inhibition [3] | inhibition [4]

CO[C@H]1C[C@@H]2CC[C@@H](C)[C@@](O)(O2)C(=O)C(=O)N2CCCC[C@H]2C(=O)O[C@H]([C@H](C)C[C@@H]2CC[C@@H](O)[C@H](OC)C2)CC(=O)[C@H](C)/C=C(\C)[C@@H](O)[C@@H](OC)C(=O)[C@H](C)C[C@H](C)/C=C/C=C/C=C/1C
active: inhibition [5] | inhibition [6] | inhibition [7] | inhibition [8] | inhibition [9] | inhibition [10]

O=C1Nc2ccccc2C12OCC1(CO2)COC2(OC1)C(=O)Nc1ccccc12 (stereo not given)
active: Activity [11]
